From paper PMC10408683, “Dual Blockade of EP2 and EP4 Signaling is Required for Optimal Immune Activation and Antitumor Activity Against Prostaglandin-Expressing Tumors” (Cancer Research Communications, 2023)

Tests used:
Format in all cases: cell-based
EP4 [1] = biological target: T1, EP4 (Homo sapiens, UniProt P35408); assay: calcium flux assay in HEK293-based cells stably expressing human EP4
T1 construct: gene PTGER4

EP2 = biological target: T2, EP2 (Homo sapiens, UniProt P43116); assay: calcium flux antagonism of PGE2 in HEK293 cells stably expressing EP2 coupled through a promiscuous G protein
T2 construct: gene PTGER2

EP4 [2] = biological target: T1, EP4; assay: calcium flux antagonism of PGE2 in HEK293 cells stably expressing EP4 coupled through a promiscuous G protein

T1 sequence (P35408 whole entry): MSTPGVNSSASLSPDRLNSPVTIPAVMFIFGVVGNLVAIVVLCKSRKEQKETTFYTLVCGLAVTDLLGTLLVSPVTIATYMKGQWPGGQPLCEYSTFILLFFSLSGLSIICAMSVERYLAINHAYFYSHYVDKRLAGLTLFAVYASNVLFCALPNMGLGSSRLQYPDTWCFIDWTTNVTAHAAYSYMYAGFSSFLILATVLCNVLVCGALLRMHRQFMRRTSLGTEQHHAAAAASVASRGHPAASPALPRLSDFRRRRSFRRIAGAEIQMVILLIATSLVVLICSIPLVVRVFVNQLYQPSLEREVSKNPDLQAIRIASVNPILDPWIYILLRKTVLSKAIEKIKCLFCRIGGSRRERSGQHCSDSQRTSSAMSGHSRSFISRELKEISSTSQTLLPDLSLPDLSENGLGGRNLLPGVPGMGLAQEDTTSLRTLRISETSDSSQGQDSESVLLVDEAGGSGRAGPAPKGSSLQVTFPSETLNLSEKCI
T2 sequence (P43116 whole entry): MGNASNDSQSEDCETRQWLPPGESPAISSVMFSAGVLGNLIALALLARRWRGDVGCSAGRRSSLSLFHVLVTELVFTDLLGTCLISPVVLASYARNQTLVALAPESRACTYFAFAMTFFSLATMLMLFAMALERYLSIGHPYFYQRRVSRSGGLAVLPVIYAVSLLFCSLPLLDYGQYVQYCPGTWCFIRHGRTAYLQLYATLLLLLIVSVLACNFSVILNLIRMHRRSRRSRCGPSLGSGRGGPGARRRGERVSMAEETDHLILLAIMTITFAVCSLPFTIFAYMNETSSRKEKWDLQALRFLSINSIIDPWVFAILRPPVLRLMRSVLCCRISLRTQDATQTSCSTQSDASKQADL

| IC50 (EP4 [1]) | IC50 (EP2) | IC50 (EP4 [2]) | Substance |
| --- | --- | --- | --- |
| 0.4 nM |  |  | TPST-7131 |
|  | 17.2 nM | 3.24 nM | TPST-1495 |
